{"source": "paper PMC7411887", "about": "“New Paracyclophanylthiazoles with Anti-Leukemia Activity: Design, Synthesis, Molecular Docking, and Mechanistic Studies” (Molecules, 2020)", "test_in_all_cases": "NCI five-dose assay", "key": {"PC-3": {"tested_on": "PC-3", "type": "cell-based", "conditions": "Prostate Cancer PC-3"}, "TK-10": {"tested_on": "TK-10", "type": "cell-based, human", "conditions": "Renal Cancer TK-10"}, "HCT-116": {"tested_on": "HCT-116", "type": "cell-based", "conditions": "Colon Cancer HCT-116"}, "A498": {"tested_on": "A498", "type": "cell-based", "conditions": "Renal Cancer A498"}, "LOX IMVI": {"tested_on": "LOX IMVI", "type": "cell-based", "conditions": "Homo sapiens, Melanoma LOX IMVI"}, "SF-268": {"tested_on": "SF-268", "type": "cell-based", "conditions": "Homo sapiens, CNS Cancer SF-268"}, "OVCAR-4": {"tested_on": "OVCAR-4", "type": "cell-based, human", "conditions": "Ovarian Cancer OVCAR-4"}, "SK-MEL-2": {"tested_on": "SK-MEL-2", "type": "cell-based", "conditions": "Melanoma SK-MEL-2"}, "MDA-MB-231/ATCC": {"tested_on": "MDA-MB-231/ATCC", "type": "cell-based", "conditions": "Breast Cancer MDA-MB-231/ATCC"}, "SN12C": {"tested_on": "SN12C", "type": "cell-based", "conditions": "Renal Cancer SN12C"}, "[1]": {"conditions": "Homo sapiens, read-out: GI50 Concentration/Cell Line"}, "[2]": {"conditions": "read-out: GI50 Concentration/Cell Line"}}, "data": [{"smiles": "COC(=O)C=C1SC(=NNC(=O)c2cc3ccc2CCc2ccc(cc2)CC3)N(c2ccccc2)C1=O", "note": "[Compound 3a]", "values": [{"measurement": "LC50", "setting": "PC-3; Homo sapiens", "result": 7.7, "unit": "µM"}, {"measurement": "GI50", "setting": "PC-3; [1]", "result": 1710, "unit": "nM"}, {"measurement": "TGI Concentration/Cell Line", "setting": "PC-3", "result": 3.63, "unit": "µM"}, {"measurement": "GI50", "setting": "TK-10; [1]", "result": 2030, "unit": "nM"}, {"measurement": "TGI Concentration/Cell Line", "setting": "TK-10", "result": 5.60, "unit": "µM"}, {"measurement": "TGI Concentration/Cell Line", "setting": "HCT-116", "result": 3.66, "unit": "µM"}, {"measurement": "LC50", "setting": "HCT-116; Homo sapiens", "result": 7.51, "unit": "µM"}, {"measurement": "GI50", "setting": "HCT-116; [1]", "result": 1790, "unit": "nM"}, {"measurement": "CC50", "setting": "A498; Homo sapiens, read-out: LC50 (the source's name)", "result": "> 100", "unit": "µM"}, {"measurement": "TGI Concentration/Cell Line", "setting": "A498", "result": 8.36, "unit": "µM"}, {"measurement": "LC50 (concentration killing 50% of cells)", "setting": "LOX IMVI", "result": 6.75, "unit": "µM"}, {"measurement": "GI50", "setting": "LOX IMVI; [2]", "result": 1690, "unit": "nM"}, {"measurement": "GI50", "setting": "SF-268; [2]", "result": 3.09, "unit": "µM"}, {"measurement": "CC50", "setting": "SF-268; read-out: LC50 (the source's name)", "result": "> 100", "unit": "µM"}, {"measurement": "GI50", "setting": "OVCAR-4; [1]", "result": 3.17, "unit": "µM"}, {"measurement": "TGI Concentration/Cell Line", "setting": "OVCAR-4", "result": 9.88, "unit": "µM"}, {"measurement": "LC50 (concentration causing 50% net cell kill)", "setting": "SK-MEL-2; Homo sapiens", "result": "> 100", "unit": "µM"}, {"measurement": "GI50", "setting": "SK-MEL-2; [1]", "result": 2650, "unit": "nM"}, {"measurement": "TGI Concentration/Cell Line", "setting": "SK-MEL-2", "result": 7.76, "unit": "µM"}, {"measurement": "TGI Concentration/Cell Line", "setting": "MDA-MB-231/ATCC", "result": 7.46, "unit": "µM"}, {"measurement": "LC50", "setting": "MDA-MB-231/ATCC; Homo sapiens", "result": "> 100", "unit": "µM"}, {"measurement": "GI50", "setting": "MDA-MB-231/ATCC; [1]", "result": 2630, "unit": "nM"}, {"measurement": "LC50", "setting": "SN12C; Homo sapiens", "result": "> 100", "unit": "µM"}, {"measurement": "GI50", "setting": "SN12C; [1]", "result": 2270, "unit": "nM"}, {"measurement": "TGI Concentration/Cell Line", "setting": "SN12C", "result": 5.94, "unit": "µM"}]}]}
